Measurements: BindingDB's records for patent US11814367 (Maze Therapeutics, 2023)

Tests used:
[1] = target: T1, Glycogen [starch] synthase, muscle (Homo sapiens, UniProt P13807); assay: Kinetic Biochemical Assay
T1 sequence (P13807 whole entry): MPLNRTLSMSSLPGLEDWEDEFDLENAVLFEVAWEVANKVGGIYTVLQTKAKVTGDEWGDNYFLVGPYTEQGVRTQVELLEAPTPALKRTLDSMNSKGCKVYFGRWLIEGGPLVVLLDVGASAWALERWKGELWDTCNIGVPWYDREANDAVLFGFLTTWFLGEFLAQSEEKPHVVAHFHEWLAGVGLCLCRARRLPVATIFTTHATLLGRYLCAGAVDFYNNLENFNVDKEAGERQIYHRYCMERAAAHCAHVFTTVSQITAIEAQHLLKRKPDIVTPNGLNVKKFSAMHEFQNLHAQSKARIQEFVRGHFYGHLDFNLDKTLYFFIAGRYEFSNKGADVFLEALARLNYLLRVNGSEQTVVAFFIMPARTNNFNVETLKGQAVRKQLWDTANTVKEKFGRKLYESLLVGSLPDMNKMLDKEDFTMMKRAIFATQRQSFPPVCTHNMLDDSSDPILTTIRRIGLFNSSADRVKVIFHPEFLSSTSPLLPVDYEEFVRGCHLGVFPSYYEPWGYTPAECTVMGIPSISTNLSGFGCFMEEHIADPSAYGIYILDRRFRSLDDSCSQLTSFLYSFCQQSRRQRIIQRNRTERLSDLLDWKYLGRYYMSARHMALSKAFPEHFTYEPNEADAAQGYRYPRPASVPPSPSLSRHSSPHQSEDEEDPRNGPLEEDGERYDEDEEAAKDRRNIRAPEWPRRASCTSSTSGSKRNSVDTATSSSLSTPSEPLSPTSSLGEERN
Protocol: The Assay Buffer contained 50 mM Tris pH 7.5, 2 mM MgCl2, and 100 mM KCl. Fresh stocks of BSA at a final concentration of 0.02% and TCEP at 1 mM were added before splitting buffer into hGYS1 buffer and substrate buffer. To the hGYS1 buffer, rabbit liver glycogen was added at a final concentration of 0.2% glycogen. Glucose-6-Phosphate was added at 1 mM, recombinant hGYS1/GN1 protein was added at 50 nM to the substrate buffer, phosphoenolpyruvate (PEP) was added at 2 mM, UDP-Glucose was added at 0.8 mM, NADH) was added at 0.6 mM, and Pyruvate Kinase/Lactate Dehydrogenase was added at 20 units/mL. The reaction was initiated by mixing hGYS1 buffer and substrate buffer at a 1:1 ratio. Both buffers were plated using a liquid dispensing device with hGYS1 buffer plated first followed by the substrate buffer. Plates were spun briefly to eliminate air bubbles and are immediately read in continuous mode at an absorbance of 340 nm, for 10 time points in one-minute increments, for a total of 10 minutes. The slope from these 10 time points was normalized to the positive and negative control wells.

[2] = target: T2, Glycogen [starch] synthase, liver (Homo sapiens, UniProt P54840); assay: The GYS2 coupled enzyme assay
T2 sequence (P54840 whole entry): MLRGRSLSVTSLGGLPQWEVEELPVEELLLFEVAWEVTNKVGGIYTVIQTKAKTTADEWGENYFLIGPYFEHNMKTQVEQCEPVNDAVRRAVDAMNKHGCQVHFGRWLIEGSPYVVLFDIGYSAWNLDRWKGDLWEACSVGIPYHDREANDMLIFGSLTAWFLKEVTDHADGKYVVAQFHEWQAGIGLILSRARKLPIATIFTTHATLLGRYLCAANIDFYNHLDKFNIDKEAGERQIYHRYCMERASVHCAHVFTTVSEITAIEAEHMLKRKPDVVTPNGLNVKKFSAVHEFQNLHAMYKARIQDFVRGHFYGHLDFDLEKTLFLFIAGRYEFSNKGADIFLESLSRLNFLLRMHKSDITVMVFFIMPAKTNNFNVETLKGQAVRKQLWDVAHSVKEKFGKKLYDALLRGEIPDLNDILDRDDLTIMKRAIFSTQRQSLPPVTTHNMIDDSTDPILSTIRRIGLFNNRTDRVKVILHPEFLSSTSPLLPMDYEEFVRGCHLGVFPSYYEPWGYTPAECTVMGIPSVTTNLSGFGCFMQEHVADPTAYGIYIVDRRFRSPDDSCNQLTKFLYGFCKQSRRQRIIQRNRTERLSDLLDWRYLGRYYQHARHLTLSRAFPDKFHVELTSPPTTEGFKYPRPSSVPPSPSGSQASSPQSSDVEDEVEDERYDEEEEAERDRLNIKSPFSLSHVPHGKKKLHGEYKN
Protocol: Compounds that inhibit the hGYS2 enzyme and, subsequently, the downstream conversion of NADH to NAD+, were tested using assay ready plates (black, clear bottom 384 well plates) in a final DMSO reaction volume of 2.5% DMSO. The Assay Buffer contained 50 mM Tris pH 7.5, 2 mM MgCl2, and 100 mM KCl. Fresh stocks of BSA at a final concentration of 0.02% and TCEP 1 mM were added before splitting buffer into hGYS2 buffer and substrate buffer. To the hGYS2 buffer, rabbit liver glycogen was added at a final concentration of 0.2% glycogen. Glucose-6-Phosphate was added at 2 mM, recombinant hGYS2/GN1 protein was added at 200 nM to the substrate buffer, phosphoenolpyruvate (PEP) was added at 2 mM, UDP-Glucose was added at 2 mM, NADH was added at 0.6 mM, and Pyruvate Kinase/Lactate Dehydrogenase was added at 20 units/mL. The reaction was initiated by mixing hGYS2 buffer and substrate buffer at a 1:1 ratio. Both buffers were plated using a liquid dispensing device with hGYS2 buffer plated first followed by the substrate buffer. Plates were spun briefly to eliminate air bubbles and are immediately read in continuous mode at an absorbance of 340 nm, for 10 time points in one-minute increments, for a total of 10 minutes. The slope from these 10 time points was normalized to the positive and negative control wells. The duplicate % inhibition values are then averaged and fit to a Hill equation for dose response according to the Levenberg-Marquardt algorithm with the Hill equation maximum set to 100 and the minimum set to 0.The results are shown in Table 4 below

| IC50 [1] [nM] | IC50 [2] [nM] | SMILES |
| --- | --- | --- |
| 43 |  | CC(=O)N1C[C@H](F)C[C@H]1C(=O)NC(c1ccc2cn[nH]c2c1)c1ccc(C(C)C)c(F)n1 (single isomer, unassigned) [US11814367, Compound 634] |
| 82 |  | CC(=O)N1C[C@H](F)C[C@H]1C(=O)NC(c1ccc2cnn(C)c2c1)c1ccc(C(C)C)c(F)n1 (single isomer, unassigned) [US11814367, Compound 635] |
| 71 |  | CC(=O)N1C[C@H](F)C[C@H]1C(=O)NC(c1ccc2cn(C)nc2c1)c1ccc(C(C)C)c(F)n1 (single isomer, unassigned) [US11814367, Compound 636] |
| 453 |  | CC(=O)N1C[C@H](F)C[C@H]1C(=O)NC(c1ccc2cn[nH]c2c1)c1ccc(C2CC2)c(F)n1 (single isomer, unassigned) [US11814367, Compound 637] |
| 1330 | > 100000 | CC(=O)N1C[C@H](F)C[C@H]1C(=O)NC(c1ccc(C(C)C)cc1)c1ccccc1N (single isomer, unassigned) [US11814367, Compound 642] |
| 252 |  | COc1cccc(C(NC(=O)[C@@H]2C[C@@H](F)CN2C(C)=O)c2ccc(C(C)C)c(F)n2)c1 (single isomer, unassigned) [US11814367, Compound 654] |
| 309 | > 100000 | CC(=O)N1C[C@H](F)C[C@H]1C(=O)NC(c1ccccc1)c1ccc(C2CCC2)c(F)c1 (single isomer, unassigned) [US11814367, Compound 660] |
| 1780 |  | CC(=O)N1C[C@H](F)C[C@H]1C(=O)NC(c1cccc(-c2cc(C)nn2C)c1)c1ccc(C(C)C)c(F)n1 (single isomer, unassigned) [US11814367, Compound 697] |
| 116 | > 100000 | CC(=O)N1Cc2nccnc2CC1C(=O)N1C[C@H](F)C[C@H]1C(=O)N[C@@H](c1ccccc1)c1ccc(C(C)C)cc1 (some centres not stated) [US11814367, Compound 167] |
| 293 | > 100000 | CC(C)c1ccc([C@@H](NC(=O)[C@@H]2C[C@@H](F)CN2C(=O)CC2COC2)c2ccccc2)cc1 [US11814367, Compound 218] |
| 53 | > 100000 | CC(C)c1ccc([C@@H](NC(=O)[C@@H]2C[C@@H](F)CN2C(=O)COC(=O)N(C)C)c2ccccc2)nc1 [US11814367, Compound 251] |
| 67 | > 100000 | NC(=O)NCC(=O)N1C[C@H](F)C[C@H]1C(=O)N[C@@H](c1ccccc1)c1ccc(C2CC2)c(F)n1 [US11814367, Compound 302] |
| 24 |  | O=C(N[C@@H](c1ccccc1)c1ccc(C2CC2)c(F)n1)[C@@H]1C[C@@H](F)CN1C(=O)CNC(=O)N1CCC1 [US11814367, Compound 305] |
| 10 | > 100000 | CC(C)c1ccc([C@@H](NC(=O)[C@@H]2C[C@@H](F)CN2C(=O)CNC(=O)N(C)C)c2ccccc2)cc1F [US11814367, Compound 361] |
| 1260 |  | CC(C)c1ccc([C@@H](NC(=O)[C@@H]2C[C@@H](F)CN2C(=O)c2ccc3c(cnn3C)c2)c2ccccc2)cc1 [US11814367, Compound 702] |
| 2160 |  | O=C(N[C@H](c1ccccc1)c1ccc(C2CC2)c(F)n1)[C@@H]1C[C@@H](F)CN1C(=O)Cn1cnc2ccccc21 [US11814367, Compound 716] |
| 7 | > 100000 | CC(C)c1ccc([C@@H](NC(=O)[C@@H]2C[C@@H](F)CN2C(=O)Cn2cc(N3CCC3)nn2)c2ccccc2)nc1F [US11814367, Compound 787] |
| 9 |  | COc1nc(CC(=O)N2C[C@H](F)C[C@H]2C(=O)N[C@@H](c2ccccc2)c2ccc(C(C)C)c(F)n2)nn1C [US11814367, Compound 800] |
| 24 |  | CC(C)c1ccc([C@@H](NC(=O)[C@@H]2C[C@@H](F)CN2C(=O)Cc2nc(C(F)(F)F)co2)c2ccccc2)nc1F [US11814367, Compound 801] |
